Test results reported in article PMC3871618 (PLoS ONE, 2013).

Tests used:
MDCKII parent cells = assay: XTT cytotoxicity, CDKi + DNR combination (Chou-Talalay); type: cell-based; conditions: 72 h
Experimental: (§1) 1×10^4 MDCKII-ABCB1, 1×10^4 MDCKII parent, 2×10^4 HCT-8, or 2×10^4 HepG2 cells were grown in 96-well culture plates and incubated for 24 h. Individual CDKi diluted with growth medium were added to the exponentially growing cells and the resulting mixtures were incubated for 72 h at 37°C, 5% CO2. Cytotoxicity was then assessed using the XTT assay as follows: cells were incubated with 0.167 mg/mL XTT and 4 µM PMS in Opti-MEM for 2 h. The absorbance of the soluble formazan released was measured at 470 nm on a microplate reader (Tecan, Männedorf, Switzerland).
(§2) The combination index (CI) method of Chou-Talalay, based on the median-effect equation, was used to calculate combined drug effects. This approach offers quantitative definitions for additive, synergistic and antagonistic effects (CI values of 0.9–1.1, <0.9, and >1.1, respectively). Combination experiments were performed in a constant-ratio experimental design as recommended for the most efficient data analysis, and the generated data were used to quantify dose-reduction indices (DRI) for pairs of the tested drugs. DRI represents the fold-change of a focal effect when individual agents are used simultaneously relative to their separate effects, and their activity is synergistic if DRI > 1. […] The data acquired from these drug combination experiments were analyzed using CompuSyn ver. 3.0.1 software (ComboSyn Inc., Paramus, NJ, USA).

HepG2 cells = assay: as above; type: cell-based, human; conditions: HepG2, 72 h
Experimental: as §1, §2

HCT-8 cells = assay: as above; conditions: HCT-8, 72 h
Experimental: as §1, §2

ABCB1 [1] = molecular target: T1, ABCB1 (Homo sapiens, UniProt P08183); assay: ABCB1-ATPase inhibition assay (verapamil-stimulated), Sf9 membranes; type: biochemical; set-up: purchased Solvo Biotechnology (Szeged, Hungary); host or cells: Sf9 insect cell membranes; conditions: 140 nM to 300 µM
Experimental: (§3) The drug efflux function of ABCB1 is linked to hydrolysis of ATP by ATPase, which is stimulated in the presence of ABCB1 substrates. In the activation assay, transported substrates can stimulate baseline vanadate-sensitive ATPase activity, whereas in the inhibition assay, which is carried out in the presence of a known activator of the transporter, inhibitors may reduce the maximal vanadate-sensitive ATPase activity. ATPase activity was measured by assessing the amount of phosphate liberated from ATP by the ABCB1 transporter using the […] ATPase kit for ABCB1 according to the manufacturer’s instructions. For this purpose, Sf9 cell membranes (4 µg protein per well) were mixed with each of the test compounds (singly) in solutions with concentrations ranging from 140 nM to 300 µM, then incubated at 37°C for 10 min in the presence or absence of 1.2 mM sodium orthovanadate. The reaction was started by adding 10 mM ATP solution (magnesium salt) to the reaction mixture, stopped 10 min later, and the absorbance at 590 nm was measured after a further 30 min incubation (GeniosPlus apparatus; Tecan, Männedorf, Switzerland). The ATPase activity in each sample was determined as the difference in liberated amounts of phosphate measured in the presence and absence of 1.2 mM sodium orthovanadate. Phosphate standards were prepared in each plate and verapamil served as a positive control for ABCB1 stimulation. The results are expressed as vanadate-sensitive ATPase activities.

ABCB1 transporter = molecular target: T2, ABCB1 transporter (Homo sapiens, UniProt P08183); assay: HOE (Hoechst 33342) accumulation in MDCKII-ABCB1 cells; type: cell-based; conditions: 8 µM HOE, end-point fluorescence at 30 min, 50% of each compound's own maximum inhibitory activity, read-out: IC50, inhibition of ABCB1-mediated efflux of HOE
T2 construct: expressed in transfected cells; host or cells: MDCKII (canine kidney) cells transduced with human ABCB1, from Prof; Piet Borst and Dr. Alfred Schinkel (The Netherlands Cancer Institute)
Experimental: (§4) To investigate the inhibitory activity of CDKi on ABCB1, the intracellular accumulation of HOE, a fluorescent ABCB1 substrate, was examined in both MDCKII-ABCB1 and MDCKII parent cell lines in the presence and absence of the tested compounds. The reduction in fluorescence intensity in ABCB1-transduced cells indicates the efflux activity of the ABCB1 transporter, its inhibition increases HOE accumulation and thus the intracellular fluorescence.
(§5) The assay was conducted as previously described and optimized for application in ABCB1-expressing cells. Briefly, MDCKII-ABCB1 and MDCKII parent cells were seeded at 5×10^4 cells per well on a 96-well culture plate and used for accumulation experiments after 24 h cultivation. The medium was removed and cells were washed twice with prewarmed phosphate buffered saline (PBS) at pH 7.4.

ABCB1 [2] = molecular target: T1, ABCB1; assay: ABCB1-ATPase activation assay (baseline), Sf9 membranes; type: biochemical; set-up: purchased Solvo Biotechnology (Szeged, Hungary); host or cells: Sf9 insect cell membranes; conditions: from ATPase activity in Sf9 membranes overexpressing human ABCB1
Experimental: as §3

ABCB1 [3] = molecular target: T1, ABCB1; assay: HOE (Hoechst 33342) accumulation in MDCKII-ABCB1 cells; type: cell-based; set-up: expressed in transfected cells; host or cells: MDCKII (canine kidney) cells transduced with human ABCB1, from Prof; Piet Borst and Dr. Alfred Schinkel (The Netherlands Cancer Institute); conditions: human, probe Hoechst 33342 (HOE), 8 µM, CDKi applied at their respective IC50 concentrations, % as strongly as LY, read-out: Inhibition of HOE efflux relative to LY
Experimental: as §4, §5

[4] = DNR combined with Olomoucine II, ratio 1∶9.2
[5] = DNR combined with Purvalanol A, ratio 1∶11.7
[6] = DNR combined with Roscovitine, ratio 1∶12.3
[7] = DNR combined with Olomoucine II, ratio 1∶20.5
[8] = DNR combined with Roscovitine, ratio 1∶47.0
[9] = DNR combined with Olomoucine II, ratio 1∶6.3
[10] = DNR combined with Purvalanol A, ratio 1∶17.7
[11] = DNR combined with Roscovitine, ratio 1∶17.0

T1 sequence (P08183 whole entry): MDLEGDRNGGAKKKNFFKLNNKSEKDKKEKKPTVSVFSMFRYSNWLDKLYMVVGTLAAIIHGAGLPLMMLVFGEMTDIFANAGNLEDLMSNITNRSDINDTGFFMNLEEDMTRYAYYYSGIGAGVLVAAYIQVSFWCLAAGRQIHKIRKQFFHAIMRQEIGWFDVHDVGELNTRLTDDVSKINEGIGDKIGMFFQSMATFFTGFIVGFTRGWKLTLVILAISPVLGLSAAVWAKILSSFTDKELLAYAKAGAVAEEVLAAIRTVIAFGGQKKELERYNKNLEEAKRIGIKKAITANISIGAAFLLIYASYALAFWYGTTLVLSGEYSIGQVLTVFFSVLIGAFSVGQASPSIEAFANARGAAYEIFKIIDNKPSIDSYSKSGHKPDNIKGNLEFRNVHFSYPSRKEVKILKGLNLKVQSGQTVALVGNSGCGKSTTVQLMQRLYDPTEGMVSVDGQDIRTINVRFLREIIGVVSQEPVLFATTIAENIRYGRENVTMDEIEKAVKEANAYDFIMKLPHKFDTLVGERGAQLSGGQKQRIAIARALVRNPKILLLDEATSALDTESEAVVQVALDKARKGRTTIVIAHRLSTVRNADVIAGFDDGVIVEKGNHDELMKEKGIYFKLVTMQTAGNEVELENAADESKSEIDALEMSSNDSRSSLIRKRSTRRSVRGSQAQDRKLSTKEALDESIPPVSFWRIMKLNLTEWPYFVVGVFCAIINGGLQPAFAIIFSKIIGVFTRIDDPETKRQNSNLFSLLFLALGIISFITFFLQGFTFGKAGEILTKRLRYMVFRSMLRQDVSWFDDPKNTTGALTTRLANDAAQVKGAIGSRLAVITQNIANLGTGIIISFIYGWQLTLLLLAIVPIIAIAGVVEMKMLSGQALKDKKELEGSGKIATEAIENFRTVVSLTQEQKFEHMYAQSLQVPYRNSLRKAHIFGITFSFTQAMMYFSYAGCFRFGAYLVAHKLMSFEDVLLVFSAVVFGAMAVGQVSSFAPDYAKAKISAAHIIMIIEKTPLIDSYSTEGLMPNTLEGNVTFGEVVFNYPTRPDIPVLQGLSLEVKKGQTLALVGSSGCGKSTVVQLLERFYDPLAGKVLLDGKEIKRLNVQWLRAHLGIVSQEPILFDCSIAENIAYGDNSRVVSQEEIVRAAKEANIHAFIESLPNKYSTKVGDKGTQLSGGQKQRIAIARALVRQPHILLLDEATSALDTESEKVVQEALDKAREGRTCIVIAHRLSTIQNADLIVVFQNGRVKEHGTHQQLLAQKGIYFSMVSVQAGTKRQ
T2 sequence (P08183 whole entry): as above

COc1cccc2c1C(=O)c1c(O)c3c(c(O)c1C2=O)C[C@@](O)(C(C)=O)C[C@@H]3O[C@H]1C[C@H](N)[C@H](O)[C@H](C)O1 [DNR, daunorubicin]
DRI at Fa 0.5, drug I (DNR) (MDCKII parent cells; [4]): 2.38±0.08
DRI at Fa 0.75, drug I (DNR) (MDCKII parent cells; [4]): 3.07±0.06
DRI at Fa 0.9, drug I (DNR) (MDCKII parent cells; [4]): 3.96±0.03
DRI at Fa 0.5, drug I (DNR) (MDCKII parent cells; [5]): 2.25±0.03
DRI at Fa 0.75, drug I (DNR) (MDCKII parent cells; [5]): 2.84±0.05
DRI at Fa 0.9, drug I (DNR) (MDCKII parent cells; [5]): 3.60±0.09
DRI at Fa 0.75, drug I (DNR) (MDCKII parent cells; [6]): 2.74±0.06
DRI at Fa 0.9, drug I (DNR) (MDCKII parent cells; [6]): 3.57±0.09
DRI at Fa 0.75, drug I (DNR) (HepG2 cells; [7]): 2.55±0.03
DRI at Fa 0.9, drug I (DNR) (HepG2 cells; [7]): 4.68±0.09
DRI at Fa 0.9, drug I (DNR) (HepG2 cells; DNR combined with Purvalanol A, ratio 1∶43.0): 4.05±0.08
DRI at Fa 0.75, drug I (DNR) (HepG2 cells; [8]): 2.72±0.02
DRI at Fa 0.9, drug I (DNR) (HepG2 cells; [8]): 5.02±0.03
DRI at Fa 0.5, drug I (DNR) (HCT-8 cells; [9]): 3.11±0.13
DRI at Fa 0.75, drug I (DNR) (HCT-8 cells; [9]): 4.14 ±0.08
DRI at Fa 0.9, drug I (DNR) (HCT-8 cells; [9]): 5.45±0.02
DRI at Fa 0.75, drug I (DNR) (HCT-8 cells; [10]): 3.12±0.03
DRI at Fa 0.9, drug I (DNR) (HCT-8 cells; [10]): 4.36±0.13
DRI at Fa 0.5, drug I (DNR) (HCT-8 cells; [11]): 2.63±0.02
DRI at Fa 0.75, drug I (DNR) (HCT-8 cells; [11]): 3.96±0.05
DRI at Fa 0.9, drug I (DNR) (HCT-8 cells; [11]): 5.96±0.17

CN1CC[C@H](c2c(O)cc(O)c3c(=O)cc(-c4ccccc4Cl)oc23)[C@H](O)C1 [flavopiridol]
Effect on verapamil-stimulated vanadate-sensitive ATPase activity of ABCB1 (ABCB1 [1]): only slightly reduced it at the highest tested concentration
IC50 (ABCB1 transporter): 16.9 µM
ABCB1 substrate classification (ABCB1 [2]): non-substrates of ABCB1
inhibition at 30 min (ABCB1 [3]): 31%
